# Measurements: the supplement of paper PMC10307832
# Key:
# Assay in all cases: relative viability (nuclei count vs DMSO), 5 days (fraction); higher = more cells survive
# NCI-H322M = tested on: NCI-H322M
# How it was run: (§1)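 Relative viability divides the nuclei count in treated wells by that in vehicle wells. Lung cancer cell lines were seeded in 1536-well plates, dosed by pin tool the next day, and fixed and stained after 5 days in one step with final 0.05% Triton X-100, 1% formaldehyde and 1 ug/ml Hoechst. Dosing was a single drug or a fixed anchor-drug dose plus five library-drug doses (not always all listed) in √10 steps, and values are medians of duplicate plates imaged at 4×.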
# EPLC-272H = tested on: EPLC-272H
# How it was run: as §1
# NCI-H2347 = tested on: NCI-H2347
# How it was run: as §1
# NCI-H1563 = tested on: NCI-H1563
# How it was run: as §1
# NCI-H1993 = tested on: NCI-H1993
# How it was run: as §1
# LXF-289 = tested on: LXF-289
# How it was run: as §1
# SW 1573 = tested on: SW 1573
# How it was run: as §1
# H3255 = tested on: H3255
# How it was run: as §1
# NCI-H2126 = tested on: NCI-H2126
# How it was run: as §1
# NCI-H647 = tested on: NCI-H647
# How it was run: as §1
# HOP-62 = tested on: HOP-62
# How it was run: as §1
# EMC-BAC-2 = tested on: EMC-BAC-2
# How it was run: as §1
# NCI-H1650 = tested on: NCI-H1650
# How it was run: as §1
# NCI-H1915 = tested on: NCI-H1915
# How it was run: as §1
# NCI-H661 = tested on: NCI-H661
# How it was run: as §1
# NCI-H2023 = tested on: NCI-H2023
# How it was run: as §1
# SK-LU-1 = tested on: SK-LU-1
# How it was run: as §1
# NCI-H2085 = tested on: NCI-H2085
# How it was run: as §1
# NCI-H2342 = tested on: NCI-H2342
# How it was run: as §1
# NCI-H2009 = tested on: NCI-H2009
# How it was run: as §1
# LCLC-97TM1 = tested on: LCLC-97TM1
# How it was run: as §1
# PC-14 = tested on: PC-14
# How it was run: as §1
smiles,measurement,setting,value
O=C(O)c1ccc(-c2c[nH]c3ncc(-c4ccccc4)cc23)cc1C1CCCC1 + Nc1nc2[nH]cc(CCc3ccc(C(=O)N[C@@H](CCC(=O)O)C(=O)O)cc3)c2c(=O)[nH]1 [Pemetrexed] (partner 0.2 µM),relative viability,NCI-H322M; first compound 0.04 µM,0.632
same,relative viability,NCI-H322M; first compound 0.1265 µM,0.586
same,relative viability,NCI-H322M; first compound 0.4 µM,0.589
same,relative viability,NCI-H322M; first compound 1.265 µM,0.547
same,relative viability,EPLC-272H; first compound 0.04 µM,0.369
same,relative viability,EPLC-272H; first compound 0.1265 µM,0.336
same,relative viability,EPLC-272H; first compound 0.4 µM,0.279
same,relative viability,EPLC-272H; first compound 1.265 µM,0.251
same,relative viability,NCI-H2347; first compound 0.04 µM,0.435
same,relative viability,NCI-H2347; first compound 0.1265 µM,0.453
same,relative viability,NCI-H2347; first compound 0.4 µM,0.454
same,relative viability,NCI-H2347; first compound 1.265 µM,0.398
same,relative viability,NCI-H1563; first compound 0.04 µM,0.698
same,relative viability,NCI-H1563; first compound 0.1265 µM,0.948
same,relative viability,NCI-H1563; first compound 0.4 µM,0.789
same,relative viability,NCI-H1563; first compound 1.265 µM,0.892
same,relative viability,NCI-H1993; first compound 0.04 µM,0.603
same,relative viability,NCI-H1993; first compound 0.1265 µM,0.622
same,relative viability,NCI-H1993; first compound 0.4 µM,0.617
same,relative viability,NCI-H1993; first compound 1.265 µM,0.59
same,relative viability,LXF-289; first compound 0.04 µM,0.912
same,relative viability,LXF-289; first compound 0.1265 µM,0.905
same,relative viability,LXF-289; first compound 0.4 µM,0.786
same,relative viability,LXF-289; first compound 1.265 µM,0.627
same,relative viability,SW 1573; first compound 0.04 µM,0.808
same,relative viability,SW 1573; first compound 0.1265 µM,0.762
same,relative viability,SW 1573; first compound 0.4 µM,0.779
same,relative viability,SW 1573; first compound 1.265 µM,0.63
same,relative viability,H3255; first compound 0.04 µM,0.485
same,relative viability,H3255; first compound 0.1265 µM,0.58
same,relative viability,H3255; first compound 0.4 µM,0.622
same,relative viability,H3255; first compound 1.265 µM,0.582
same,relative viability,NCI-H2126; first compound 0.04 µM,0.741
same,relative viability,NCI-H2126; first compound 0.1265 µM,0.66
same,relative viability,NCI-H2126; first compound 0.4 µM,0.707
same,relative viability,NCI-H2126; first compound 1.265 µM,0.666
same,relative viability,NCI-H647; first compound 0.04 µM,0.165
same,relative viability,NCI-H647; first compound 0.1265 µM,0.171
same,relative viability,NCI-H647; first compound 0.4 µM,0.182
same,relative viability,NCI-H647; first compound 1.265 µM,0.148
same,relative viability,HOP-62; first compound 0.04 µM,0.327
same,relative viability,HOP-62; first compound 0.1265 µM,0.389
same,relative viability,HOP-62; first compound 0.4 µM,0.307
same,relative viability,HOP-62; first compound 1.265 µM,0.351
same,relative viability,EMC-BAC-2; first compound 0.04 µM,0.451
same,relative viability,EMC-BAC-2; first compound 0.1265 µM,0.465
same,relative viability,EMC-BAC-2; first compound 0.4 µM,0.479
same,relative viability,EMC-BAC-2; first compound 1.265 µM,0.451
same,relative viability,NCI-H1650; first compound 0.04 µM,0.352
same,relative viability,NCI-H1650; first compound 0.1265 µM,0.466
same,relative viability,NCI-H1650; first compound 0.4 µM,0.383
same,relative viability,NCI-H1650; first compound 1.265 µM,0.33
same,relative viability,NCI-H1915; first compound 0.04 µM,0.493
same,relative viability,NCI-H1915; first compound 0.1265 µM,0.454
same,relative viability,NCI-H1915; first compound 0.4 µM,0.481
same,relative viability,NCI-H1915; first compound 1.265 µM,0.448
same,relative viability,NCI-H661; first compound 0.04 µM,0.881
same,relative viability,NCI-H661; first compound 0.1265 µM,0.918
same,relative viability,NCI-H661; first compound 0.4 µM,0.92
same,relative viability,NCI-H661; first compound 1.265 µM,0.892
same,relative viability,NCI-H2023; first compound 0.04 µM,0.23
same,relative viability,NCI-H2023; first compound 0.1265 µM,0.271
same,relative viability,NCI-H2023; first compound 0.4 µM,0.28
same,relative viability,NCI-H2023; first compound 1.265 µM,0.237
same,relative viability,SK-LU-1; first compound 0.04 µM,0.909
same,relative viability,SK-LU-1; first compound 0.1265 µM,0.987
same,relative viability,SK-LU-1; first compound 0.4 µM,0.882
same,relative viability,SK-LU-1; first compound 1.265 µM,0.548
same,relative viability,NCI-H2085; first compound 0.04 µM,0.821
same,relative viability,NCI-H2085; first compound 0.1265 µM,0.951
same,relative viability,NCI-H2085; first compound 0.4 µM,0.882
same,relative viability,NCI-H2085; first compound 1.265 µM,0.654
same,relative viability,NCI-H2342; first compound 0.04 µM,0.804
same,relative viability,NCI-H2342; first compound 0.1265 µM,0.816
same,relative viability,NCI-H2342; first compound 0.4 µM,0.765
same,relative viability,NCI-H2342; first compound 1.265 µM,0.74
same,relative viability,NCI-H2009; first compound 0.04 µM,1.03
same,relative viability,NCI-H2009; first compound 0.1265 µM,1.11
same,relative viability,NCI-H2009; first compound 0.4 µM,1.03
same,relative viability,NCI-H2009; first compound 1.265 µM,0.946
same,relative viability,LCLC-97TM1; first compound 0.04 µM,0.196
same,relative viability,LCLC-97TM1; first compound 0.1265 µM,0.204
same,relative viability,LCLC-97TM1; first compound 0.4 µM,0.157
same,relative viability,LCLC-97TM1; first compound 1.265 µM,0.153
same,relative viability,PC-14; first compound 0.04 µM,0.135
same,relative viability,PC-14; first compound 0.1265 µM,0.143
same,relative viability,PC-14; first compound 0.4 µM,0.145
same,relative viability,PC-14; first compound 1.265 µM,0.125
